Converted amounts (≈) assume the structure as drawn.
Test system: Mannheimia haemolytica
Assay: minimum inhibitory concentration (MIC)
Experimental: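 Broth microdilution MIC (Sensititre BOPO7F bovine plate, CLSI methods) of 19 antimicrobials against field isolates of P. multocida, M. haemolytica, H. somni (deep nasopharyngeal swabs) and E. coli, Enterococcus spp. (rectal swabs) from weaned dairy heifers. Incubation 16-24 h at 35 C. MIC is the lowest concentration preventing visible growth. Values with <= or > lie at the tested range limits. Trimethoprim-sulfamethoxazole is given as the trimethoprim component of a 1:19 mixture.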

CCN1CCN(c2cc3c(cc2F)c(=O)c(C(=O)O)cn3C2CC2)CC1 [Enrofloxacin]
Conditions | minimum inhibitory concentration [µg/mL]
isolate (source animal id): 8 | 0.5 (≈ 1.39 µM)
isolate (source animal id): 13 | 0.5 (≈ 1.39 µM)
isolate (source animal id): 18 | 0.5 (≈ 1.39 µM)
isolate (source animal id): 21 | 0.5 (≈ 1.39 µM)
isolate (source animal id): 25 | 0.5 (≈ 1.39 µM)
isolate (source animal id): 27 | 0.5 (≈ 1.39 µM)
isolate (source animal id): 28 | 1 (≈ 2.78 µM)
isolate (source animal id): 30 | 0.5 (≈ 1.39 µM)
isolate (source animal id): 31 | 1 (≈ 2.78 µM)
isolate (source animal id): 32 | 0.25 (≈ 0.696 µM)
isolate (source animal id): 34 | 0.5 (≈ 1.39 µM)
isolate (source animal id): 36 | 0.5 (≈ 1.39 µM)
isolate (source animal id): 37 | 1 (≈ 2.78 µM)
isolate (source animal id): 40 | 0.5 (≈ 1.39 µM)
isolate (source animal id): 41 | 0.5 (≈ 1.39 µM)
isolate (source animal id): 43 | 0.5 (≈ 1.39 µM)
isolate (source animal id): 46 | 0.5 (≈ 1.39 µM)
isolate (source animal id): 49 | 0.5 (≈ 1.39 µM)
isolate (source animal id): 50 | 0.5 (≈ 1.39 µM)
isolate (source animal id): 51 | 0.5 (≈ 1.39 µM)
isolate (source animal id): 52 | 0.5 (≈ 1.39 µM)
isolate (source animal id): 53 | 0.5 (≈ 1.39 µM)
isolate (source animal id): 55 | 0.5 (≈ 1.39 µM)
isolate (source animal id): 56 | 0.5 (≈ 1.39 µM)
isolate (source animal id): 57 | > 2
isolate (source animal id): 100 | 2 (≈ 5.56 µM)
isolate (source animal id): 103 | 0.5 (≈ 1.39 µM)
isolate (source animal id): 107 | 0.5 (≈ 1.39 µM)
isolate (source animal id): 108 | 0.5 (≈ 1.39 µM)
isolate (source animal id): 112 | 0.5 (≈ 1.39 µM)
isolate (source animal id): 113 | > 2
isolate (source animal id): 121 | 0.5 (≈ 1.39 µM)
isolate (source animal id): 122 | 0.5 (≈ 1.39 µM)
isolate (source animal id): 123 | > 2
isolate (source animal id): 126 | 2 (≈ 5.56 µM)
isolate (source animal id): 133 | > 2
isolate (source animal id): 135 | > 2
isolate (source animal id): 138 | 2 (≈ 5.56 µM)
isolate (source animal id): 141 | > 2
isolate (source animal id): 142 | 1 (≈ 2.78 µM)
isolate (source animal id): 145 | 1 (≈ 2.78 µM)
isolate (source animal id): 149 | ≤ 0.12
isolate (source animal id): 151 | ≤ 0.12
isolate (source animal id): 152 | 1 (≈ 2.78 µM)
isolate (source animal id): 154 | ≤ 0.12
isolate (source animal id): 159 | 1 (≈ 2.78 µM)
isolate (source animal id): 162 | 1 (≈ 2.78 µM)
isolate (source animal id): 170 | ≤ 0.12
isolate (source animal id): 171 | ≤ 0.12
isolate (source animal id): 172 | ≤ 0.12
isolate (source animal id): 173 | ≤ 0.12
isolate (source animal id): 179 | ≤ 0.12
isolate (source animal id): 180 | ≤ 0.12
isolate (source animal id): 183 | ≤ 0.12
isolate (source animal id): 186 | ≤ 0.12
isolate (source animal id): 187 | ≤ 0.12
isolate (source animal id): 188 | ≤ 0.12
isolate (source animal id): 190 | ≤ 0.12
isolate (source animal id): 191 | ≤ 0.12
isolate (source animal id): 192 | ≤ 0.12
isolate (source animal id): 201 | ≤ 0.12
isolate (source animal id): 202 | ≤ 0.12
isolate (source animal id): 209 | ≤ 0.12
isolate (source animal id): 211 | ≤ 0.12
isolate (source animal id): 220 | ≤ 0.12
isolate (source animal id): 221 | ≤ 0.12
isolate (source animal id): 223 | ≤ 0.12
isolate (source animal id): 233 | 1 (≈ 2.78 µM)
isolate (source animal id): 237 | 1 (≈ 2.78 µM)
isolate (source animal id): 241 | 1 (≈ 2.78 µM)
isolate (source animal id): 252 | 0.5 (≈ 1.39 µM)
isolate (source animal id): 253 | 0.5 (≈ 1.39 µM)
isolate (source animal id): 259 | > 2
isolate (source animal id): 260 | 0.5 (≈ 1.39 µM)
isolate (source animal id): 262 | 1 (≈ 2.78 µM)
isolate (source animal id): 282 | > 2
isolate (source animal id): 287 | 0.5 (≈ 1.39 µM)
isolate (source animal id): 288 | ≤ 0.12
isolate (source animal id): 291 | ≤ 0.12
isolate (source animal id): 293 | 0.5 (≈ 1.39 µM)
isolate (source animal id): 298 | 0.5 (≈ 1.39 µM)
isolate (source animal id): 299 | 0.5 (≈ 1.39 µM)
isolate (source animal id): 300 | ≤ 0.12
isolate (source animal id): 302 | 0.5 (≈ 1.39 µM)
isolate (source animal id): 304 | 0.5 (≈ 1.39 µM)
isolate (source animal id): 306 | ≤ 0.12
isolate (source animal id): 308 | ≤ 0.12
isolate (source animal id): 309 | ≤ 0.12
isolate (source animal id): 313 | 0.5 (≈ 1.39 µM)
isolate (source animal id): 318 | 0.25 (≈ 0.696 µM)
isolate (source animal id): 320 | ≤ 0.12
isolate (source animal id): 321 | 0.5 (≈ 1.39 µM)
isolate (source animal id): 323 | 0.5 (≈ 1.39 µM)
isolate (source animal id): 324 | 0.5 (≈ 1.39 µM)
isolate (source animal id): 326 | 0.5 (≈ 1.39 µM)
isolate (source animal id): 328 | 0.5 (≈ 1.39 µM)
isolate (source animal id): 329 | 0.5 (≈ 1.39 µM)
isolate (source animal id): 333 | 0.5 (≈ 1.39 µM)
isolate (source animal id): 335 | 0.5 (≈ 1.39 µM)
isolate (source animal id): 338 | 0.5 (≈ 1.39 µM)

CS(=O)(=O)c1ccc([C@@H](O)[C@@H](CF)NC(=O)C(Cl)Cl)cc1 [Florfenicol]
Conditions | minimum inhibitory concentration [µg/mL]
isolate (source animal id): 8 | 1 (≈ 2.79 µM)
isolate (source animal id): 13 | 1 (≈ 2.79 µM)
isolate (source animal id): 18 | 2 (≈ 5.58 µM)
isolate (source animal id): 21 | 2 (≈ 5.58 µM)
isolate (source animal id): 25 | 2 (≈ 5.58 µM)
isolate (source animal id): 27 | 1 (≈ 2.79 µM)
isolate (source animal id): 28 | 1 (≈ 2.79 µM)
isolate (source animal id): 30 | 1 (≈ 2.79 µM)
isolate (source animal id): 31 | 1 (≈ 2.79 µM)
isolate (source animal id): 32 | 1 (≈ 2.79 µM)
isolate (source animal id): 34 | 1 (≈ 2.79 µM)
isolate (source animal id): 36 | 1 (≈ 2.79 µM)
isolate (source animal id): 37 | 1 (≈ 2.79 µM)
isolate (source animal id): 40 | 1 (≈ 2.79 µM)
isolate (source animal id): 41 | 1 (≈ 2.79 µM)
isolate (source animal id): 43 | 2 (≈ 5.58 µM)
isolate (source animal id): 46 | 1 (≈ 2.79 µM)
isolate (source animal id): 49 | 1 (≈ 2.79 µM)
isolate (source animal id): 50 | 1 (≈ 2.79 µM)
isolate (source animal id): 51 | 1 (≈ 2.79 µM)
isolate (source animal id): 52 | 1 (≈ 2.79 µM)
isolate (source animal id): 53 | 2 (≈ 5.58 µM)
isolate (source animal id): 55 | 1 (≈ 2.79 µM)
isolate (source animal id): 56 | 1 (≈ 2.79 µM)
isolate (source animal id): 57 | > 8
isolate (source animal id): 100 | 2 (≈ 5.58 µM)
isolate (source animal id): 103 | 1 (≈ 2.79 µM)
isolate (source animal id): 107 | 2 (≈ 5.58 µM)
isolate (source animal id): 108 | 2 (≈ 5.58 µM)
isolate (source animal id): 112 | > 8
isolate (source animal id): 113 | > 8
isolate (source animal id): 121 | 2 (≈ 5.58 µM)
isolate (source animal id): 122 | 2 (≈ 5.58 µM)
isolate (source animal id): 123 | > 8
isolate (source animal id): 126 | > 8
isolate (source animal id): 133 | > 8
isolate (source animal id): 135 | > 8
isolate (source animal id): 138 | > 8
isolate (source animal id): 141 | > 8
isolate (source animal id): 142 | 2 (≈ 5.58 µM)
isolate (source animal id): 145 | > 8
isolate (source animal id): 149 | 0.5 (≈ 1.4 µM)
isolate (source animal id): 151 | 0.5 (≈ 1.4 µM)
isolate (source animal id): 152 | 2 (≈ 5.58 µM)
isolate (source animal id): 154 | 0.5 (≈ 1.4 µM)
isolate (source animal id): 159 | > 8
isolate (source animal id): 162 | > 8
isolate (source animal id): 170 | > 8
isolate (source animal id): 171 | 1 (≈ 2.79 µM)
isolate (source animal id): 172 | > 8
isolate (source animal id): 173 | 1 (≈ 2.79 µM)
isolate (source animal id): 179 | > 8
isolate (source animal id): 180 | > 8
isolate (source animal id): 183 | > 8
isolate (source animal id): 186 | > 8
isolate (source animal id): 187 | > 8
isolate (source animal id): 188 | > 8
isolate (source animal id): 190 | 1 (≈ 2.79 µM)
isolate (source animal id): 191 | > 8
isolate (source animal id): 192 | 1 (≈ 2.79 µM)
isolate (source animal id): 201 | > 8
isolate (source animal id): 202 | 1 (≈ 2.79 µM)
isolate (source animal id): 209 | 1 (≈ 2.79 µM)
isolate (source animal id): 211 | > 8
isolate (source animal id): 220 | > 8
isolate (source animal id): 221 | > 8
isolate (source animal id): 223 | > 8
isolate (source animal id): 233 | 2 (≈ 5.58 µM)
isolate (source animal id): 237 | 1 (≈ 2.79 µM)
isolate (source animal id): 241 | 2 (≈ 5.58 µM)
isolate (source animal id): 252 | 2 (≈ 5.58 µM)
isolate (source animal id): 253 | 2 (≈ 5.58 µM)
isolate (source animal id): 259 | > 8
isolate (source animal id): 260 | 2 (≈ 5.58 µM)
isolate (source animal id): 262 | 2 (≈ 5.58 µM)
isolate (source animal id): 282 | > 8
isolate (source animal id): 287 | 2 (≈ 5.58 µM)
isolate (source animal id): 288 | 0.5 (≈ 1.4 µM)
isolate (source animal id): 291 | 0.5 (≈ 1.4 µM)
isolate (source animal id): 293 | 2 (≈ 5.58 µM)
isolate (source animal id): 298 | 8 (≈ 22.3 µM)
isolate (source animal id): 299 | > 8
isolate (source animal id): 300 | 1 (≈ 2.79 µM)
isolate (source animal id): 302 | > 8
isolate (source animal id): 304 | 8 (≈ 22.3 µM)
isolate (source animal id): 306 | 0.5 (≈ 1.4 µM)
isolate (source animal id): 308 | 0.5 (≈ 1.4 µM)
isolate (source animal id): 309 | 0.5 (≈ 1.4 µM)
isolate (source animal id): 313 | 2 (≈ 5.58 µM)
isolate (source animal id): 318 | 1 (≈ 2.79 µM)
isolate (source animal id): 320 | 1 (≈ 2.79 µM)
isolate (source animal id): 321 | 2 (≈ 5.58 µM)
isolate (source animal id): 323 | > 8
isolate (source animal id): 324 | 2 (≈ 5.58 µM)
isolate (source animal id): 326 | 2 (≈ 5.58 µM)
isolate (source animal id): 328 | 2 (≈ 5.58 µM)
isolate (source animal id): 329 | 2 (≈ 5.58 µM)
isolate (source animal id): 333 | 2 (≈ 5.58 µM)
isolate (source animal id): 335 | 2 (≈ 5.58 µM)
isolate (source animal id): 338 | 2 (≈ 5.58 µM)

— the supplement of paper PMC8612539
